Test results from article PMC7377239, “Cardiovascular Effects of Polychlorinated Biphenyls and Their Major Metabolites” (Environmental Health Perspectives, 2020).
Where two headings read alike, the source gives them in different places.

Test system: iCell cardiomyocytes (human iPSC-derived cardiomyocytes)
Assay: Intracellular Ca2+ flux / beating parameters in iCell cardiomyocytes (FLIPR tetra), 90 min or 24 h
Type: cell-based
Details: for activity at 0.01 µM / activity at 0.1 µM / activity at 1 µM / activity at 10 µM / activity at 100 µM: Homo sapiens, Cardiomyocyte
Summary of the method: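 PODs were defined as the concentration crossing one SD of the vehicle-control means (0.5% DMSO) on four-parameter logistic fits of Ca2+ trace metrics (peak height, frequency, peak-spacing CV, decay/rise ratio). Traces came from 100 s, 8 Hz FLIPR reads at 37 °C on calcium-dye-loaded iCell cardiomyocytes. Before reading, cells were treated for 90 min or 24 h from 5× chemical plates spanning 0.05–500 µM, in triplicate.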

[1] = 1.5 h, 0.01 µM, 90min, 0.00 µM = 100.00, read-out: cm.amp.avg.90min
[2] = 1.5 h, 0.01 µM, 90min, 0.00 µM = 100.00, read-out: cm.amp.cv.90min
[3] = 1.5 h, 0.01 µM, 90min, 0.00 µM = 100.00, read-out: cm.bpm.90min
[4] = 1.5 h, 0.01 µM, 90min, 0.00 µM = 100.00, read-out: cm.decay.rise.90min
[5] = 1.5 h, 0.01 µM, 90min, 0.00 µM = 100.00, read-out: cm.spacing.cv.90min
[6] = 1.5 h, 0.10 µM, 90min, 0.00 µM = 100.00, read-out: cm.amp.avg.90min
[7] = 1.5 h, 0.10 µM, 90min, 0.00 µM = 100.00, read-out: cm.amp.cv.90min
[8] = 1.5 h, 0.10 µM, 90min, 0.00 µM = 100.00, read-out: cm.bpm.90min
[9] = 1.5 h, 0.10 µM, 90min, 0.00 µM = 100.00, read-out: cm.decay.rise.90min
[10] = 1.5 h, 0.10 µM, 90min, 0.00 µM = 100.00, read-out: cm.spacing.cv.90min
[11] = 1.5 h, 1.00 µM, 90min, 0.00 µM = 100.00, read-out: cm.amp.avg.90min
[12] = 1.5 h, 1.00 µM, 90min, 0.00 µM = 100.00, read-out: cm.amp.cv.90min
[13] = 1.5 h, 1.00 µM, 90min, 0.00 µM = 100.00, read-out: cm.bpm.90min
[14] = 1.5 h, 1.00 µM, 90min, 0.00 µM = 100.00, read-out: cm.decay.rise.90min
[15] = 1.5 h, 1.00 µM, 90min, 0.00 µM = 100.00, read-out: cm.spacing.cv.90min
[16] = 1.5 h, 10.00 µM, 90min, 0.00 µM = 100.00, read-out: cm.amp.avg.90min
[17] = 1.5 h, 10.00 µM, 90min, 0.00 µM = 100.00, read-out: cm.amp.cv.90min
[18] = 1.5 h, 90min, 0.00 µM = 100.00, read-out: cm.amp.avg.90min
[19] = 1.5 h, 90min, 0.00 µM = 100.00, read-out: cm.amp.cv.90min
[20] = 1.5 h, 90min, 0.00 µM = 100.00, read-out: cm.bpm.90min
[21] = 1.5 h, 90min, 0.00 µM = 100.00, read-out: cm.decay.rise.90min
[22] = 1.5 h, 90min, 0.00 µM = 100.00, read-out: cm.spacing.cv.90min
[23] = 24 h, 0.01 µM, 24hrs, 0.00 µM = 100.00, read-out: cm.bpm.24hrs
[24] = 24 h, 0.01 µM, 24hrs, 0.00 µM = 100.00, read-out: cm.decay.rise.24hrs
[25] = 24 h, 0.01 µM, 24hrs, 0.00 µM = 100.00, read-out: cm.spacing.cv.24hrs
[26] = 24 h, 1.00 µM, 24hrs, 0.00 µM = 100.00, read-out: cm.amp.avg.24hrs
[27] = 24 h, 24hrs, 0.00 µM = 100.00, read-out: cm.amp.avg.24hrs
[28] = 24 h, 24hrs, 0.00 µM = 100.00, read-out: cm.amp.cv.24hrs
[29] = 24 h, 24hrs, 0.00 µM = 100.00, read-out: cm.bpm.24hrs
[30] = 24 h, 24hrs, 0.00 µM = 100.00, read-out: cm.decay.rise.24hrs
[31] = 24 h, 24hrs, 0.00 µM = 100.00, read-out: cm.spacing.cv.24hrs
[32] = 0.01 µM, 24hrs, 0.00 µM = 100.00
[33] = 0.10 µM, 24hrs, 0.00 µM = 100.00
[34] = 1.00 µM, 24hrs, 0.00 µM = 100.00
[35] = 10.00 µM, 90min, 0.00 µM = 100.00
[36] = 10.00 µM, 24hrs, 0.00 µM = 100.00

Clc1ccc(-c2cc(Cl)c(Cl)c(Cl)c2)cc1Cl [PCB126]
activity at 0.01 µM [1]: 100%
activity at 0.01 µM [2]: 110%
activity at 0.01 µM [3]: 107%
activity at 0.01 µM [4]: 102%
activity at 0.01 µM [5]: 135%
activity at 0.1 µM [6]: 102%
activity at 0.1 µM [7]: 139%
activity at 0.1 µM [8]: 97.8%
activity at 0.1 µM [9]: 99.8%
activity at 0.1 µM [10]: 119%
activity at 1 µM [11]: 102%
activity at 1 µM [12]: 114%
activity at 1 µM [13]: 105%
activity at 1 µM [14]: 96%
activity at 1 µM [15]: 115%
activity at 10 µM [16]: 90.3%
activity at 10 µM [17]: 363%
activity at 10 µM (1.5 h, 10.00 µM, 90min, 0.00 µM = 100.00, read-out: cm.bpm.90min): 128%
activity at 10 µM (1.5 h, 10.00 µM, 90min, 0.00 µM = 100.00, read-out: cm.decay.rise.90min): 83%
activity at 100 µM [18]: 117%
activity at 100 µM [19]: 120%
activity at 100 µM [20]: 135%
activity at 100 µM [21]: 86.2%
activity at 100 µM [22]: 106%
activity at 0.01 µM (24 h, 0.01 µM, 24hrs, 0.00 µM = 100.00, read-out: cm.amp.avg.24hrs): 73.3%
activity at 0.01 µM (24 h, 0.01 µM, 24hrs, 0.00 µM = 100.00, read-out: cm.amp.cv.24hrs): 143%
activity at 0.01 µM [23]: 100%
activity at 0.01 µM [24]: 101%
activity at 0.01 µM [25]: 122%
activity at 0.1 µM (24 h, 0.10 µM, 24hrs, 0.00 µM = 100.00, read-out: cm.amp.avg.24hrs): 79.8%
activity at 0.1 µM (24 h, 0.10 µM, 24hrs, 0.00 µM = 100.00, read-out: cm.amp.cv.24hrs): 120%
activity at 0.1 µM (24 h, 0.10 µM, 24hrs, 0.00 µM = 100.00, read-out: cm.bpm.24hrs): 100%
activity at 0.1 µM (24 h, 0.10 µM, 24hrs, 0.00 µM = 100.00, read-out: cm.decay.rise.24hrs): 109%
activity at 0.1 µM (24 h, 0.10 µM, 24hrs, 0.00 µM = 100.00, read-out: cm.spacing.cv.24hrs): 117%
activity at 1 µM [26]: 72.2%
activity at 1 µM (24 h, 1.00 µM, 24hrs, 0.00 µM = 100.00, read-out: cm.amp.cv.24hrs): 128%
activity at 1 µM (24 h, 1.00 µM, 24hrs, 0.00 µM = 100.00, read-out: cm.bpm.24hrs): 104%
activity at 1 µM (24 h, 1.00 µM, 24hrs, 0.00 µM = 100.00, read-out: cm.decay.rise.24hrs): 97.6%
activity at 1 µM (24 h, 1.00 µM, 24hrs, 0.00 µM = 100.00, read-out: cm.spacing.cv.24hrs): 113%
activity at 10 µM (24 h, 10.00 µM, 24hrs, 0.00 µM = 100.00, read-out: cm.amp.avg.24hrs): 78.8%
activity at 10 µM (24 h, 10.00 µM, 24hrs, 0.00 µM = 100.00, read-out: cm.amp.cv.24hrs): 38.8%
activity at 10 µM (24 h, 10.00 µM, 24hrs, 0.00 µM = 100.00, read-out: cm.bpm.24hrs): 68.7%
activity at 10 µM (24 h, 10.00 µM, 24hrs, 0.00 µM = 100.00, read-out: cm.decay.rise.24hrs): 50%
activity at 10 µM (24 h, 10.00 µM, 24hrs, 0.00 µM = 100.00, read-out: cm.spacing.cv.24hrs): 66.1%
activity at 100 µM [27]: 20.9%
activity at 100 µM [28]: 121%
activity at 100 µM [29]: 70.6%
activity at 100 µM [30]: 29.1%
activity at 100 µM [31]: 81%

Clc1ccc(-c2ccccc2)cc1 [PCB 3, 4-chlorobiphenyl]
inotropic effect (cell beating parameters) (iPSC-CMs, concentration-response 0.01-100 μM, 90 min and 24 h): positive inotropic effects

Clc1ccc(Cl)c(-c2c(Cl)ccc(Cl)c2Cl)c1Cl [(+)-PCB 136, 2,2′,3,3′,6,6′-hexachlorobiphenyl]
cm.amp.avg.24hrs [32]: 54.01
cm.amp.cv.24hrs [32]: 158.80
cm.amp.avg.24hrs [33]: 107.99
cm.amp.cv.24hrs [33]: 72.89
cm.bpm.24hrs [33]: 96.42
cm.decay.rise.24hrs [33]: 106.79
cm.spacing.cv.24hrs [33]: 105.08
cm.amp.cv.24hrs [34]: 92.90
cm.bpm.24hrs [34]: 94.51
cm.decay.rise.24hrs [34]: 114.76
cm.spacing.cv.24hrs [34]: 110.09
cm.bpm.90min [35]: 82.76
cm.decay.rise.90min [35]: 115.77
cm.amp.avg.24hrs [36]: 0.00
cm.amp.cv.24hrs [36]: 0.00
cm.bpm.24hrs [36]: 0.00
cm.decay.rise.24hrs [36]: 0.00
cm.spacing.cv.24hrs [36]: 0.00
activity at 0.01 µM [1]: 106%
activity at 0.01 µM [2]: 96.9%
activity at 0.01 µM [3]: 97.8%
activity at 0.01 µM [4]: 99%
activity at 0.01 µM [5]: 101%
activity at 0.1 µM [6]: 107%
activity at 0.1 µM [7]: 112%
activity at 0.1 µM [8]: 96.5%
activity at 0.1 µM [9]: 99.7%
activity at 0.1 µM [10]: 115%
activity at 1 µM [11]: 107%
activity at 1 µM [12]: 120%
activity at 1 µM [13]: 87.8%
activity at 1 µM [14]: 107%
activity at 1 µM [15]: 107%
activity at 10 µM [16]: 94.4%
activity at 10 µM [17]: 114%
activity at 10 µM (1.5 h, 10.00 µM, 90min, 0.00 µM = 100.00, read-out: cm.spacing.cv.90min): 118%
activity at 100 µM [18]: 0%
activity at 100 µM [19]: 0%
activity at 100 µM [20]: 0%
activity at 100 µM [21]: 0%
activity at 100 µM [22]: 0%
activity at 0.01 µM [23]: 105%
activity at 0.01 µM [24]: 93.3%
activity at 0.01 µM [25]: 104%
activity at 1 µM [26]: 83.3%
activity at 100 µM [27]: 0%
activity at 100 µM [28]: 0%
activity at 100 µM [29]: 0%
activity at 100 µM [30]: 0%
activity at 100 µM [31]: 0%
